pIC50: −log10 of the molar value.
biological target: AAK1 (full-length human protein) (Homo sapiens, UniProt Q2M2I8); experiment: P81 filter plate assay; type: biochemical; conditions: 0.2 nM-scale full-length human AAK1, Mu2 substrate, 33P-ATP, one hour at room temperature; class symbols
Procedure: Compounds were serially diluted into a Labcyte LDV plate (Labcyte, cat# LP-0200) using a Mutiprobe (PerkinElmer) and Biomek FX (Beckman Coulter) so that the highest compound concentration was at 96 μM. Compounds were then pinged (75 nL per well) into a Greiner 384-well reaction plate (Greiner, #781076) using an ECHO 550 Liquid Handler (Labcyte). A total of 12 μl reaction buffer (IMAP buffer containing Tween and DTT, from Molecular Devices) was then added to each well of columns 1 and 13 for the negative controls and 12 μl of 2×AAK1 (0.2 nM full-length human protein, NCBI accession no. NP_055726.2) was added to the remaining wells. Enzyme was then pre-incubated with compound for 10 minutes at room temperature. Reactions were initiated upon Minitrak (PerkinElmer) addition of 12 μl substrate mix containing 2× Mu2 (0.2 μM, full length human protein), 2× cold ATP (2 μM), and 1.3 μCi of hot ^33P-ATP. Reactions proceeded for one hour at room temperature. Meanwhile, Millipore 384-well P81 filter plates (Millipore, catalog # MZPHN0 W10) were placed on a plate washer (Zoom ZW, from Titertek) and pre-wet with 50 μl 1% phosphoric acid. Kinase reactions were then stopped upon addition of 24 μl of 2% phosphoric acid to each well and the Minitrak was then used to transfer 40 μl from each well into the pre-wet Millipore 384-well P81 filter plates. Reaction mixtures were incubated for 10 minutes at room temperature in the P81 plates, followed by washing five times with 100 μl/well of 1% phosphoric acid using the Zoom filter washer. The bottom of each filter plate was sealed followed by addition of 20 μl Microscint 40 to each well, sealing the top of the plates with Flashplate cover, and then waiting one hour until reading on the TopCount (Perkin Elmer).

Sequence of AAK1 (full-length human protein) (Q2M2I8 1-863 isoform Q2M2I8-2): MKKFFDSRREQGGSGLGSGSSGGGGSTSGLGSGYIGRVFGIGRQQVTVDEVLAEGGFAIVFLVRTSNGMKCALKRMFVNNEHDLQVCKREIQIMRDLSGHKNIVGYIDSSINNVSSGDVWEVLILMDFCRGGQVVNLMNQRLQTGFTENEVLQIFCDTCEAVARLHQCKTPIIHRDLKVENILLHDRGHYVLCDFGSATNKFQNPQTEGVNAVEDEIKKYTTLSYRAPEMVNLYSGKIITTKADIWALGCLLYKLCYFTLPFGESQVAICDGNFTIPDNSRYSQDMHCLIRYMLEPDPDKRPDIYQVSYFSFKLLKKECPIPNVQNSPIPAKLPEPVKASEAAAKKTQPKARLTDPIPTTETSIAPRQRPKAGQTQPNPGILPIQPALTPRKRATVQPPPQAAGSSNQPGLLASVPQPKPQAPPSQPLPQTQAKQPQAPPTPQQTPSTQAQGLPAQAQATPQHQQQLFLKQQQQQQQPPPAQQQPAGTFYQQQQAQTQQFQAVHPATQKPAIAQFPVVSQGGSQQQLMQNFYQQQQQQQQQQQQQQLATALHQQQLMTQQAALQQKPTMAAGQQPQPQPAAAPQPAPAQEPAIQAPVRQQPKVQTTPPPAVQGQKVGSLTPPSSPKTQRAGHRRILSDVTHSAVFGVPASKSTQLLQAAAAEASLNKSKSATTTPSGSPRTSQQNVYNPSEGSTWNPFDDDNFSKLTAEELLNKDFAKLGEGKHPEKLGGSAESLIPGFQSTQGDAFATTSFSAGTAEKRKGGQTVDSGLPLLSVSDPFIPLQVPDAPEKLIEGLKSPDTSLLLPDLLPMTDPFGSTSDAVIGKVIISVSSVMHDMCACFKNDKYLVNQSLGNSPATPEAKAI

| pIC50 | Structure (SMILES) |
| --- | --- |
| ≥ 8.00 | CC(C)CCn1ccc(-c2ccc3ncc(Cl)n3n2)cc1=O [4-(3-Chloroimidazo[1,2-b]pyridazin-6-yl)-1-isopentylpyridin-2(1H)-one] |
| 6.00 to 7.00 | CC(C)C[C@H](N)Cn1ccc(-c2ccc3ncc(Br)n3n2)cc1=O [(S)-1-(2-Amino-4-methylpentyl)-4-(3-bromoimidazo[1,2-b]pyridazin-6-yl)pyridin-2(1H)-one] |
| ≥ 8.00 | COc1ncccc1-c1cnc2ccc(-c3cnn(CCC(C)C)c3)nn12 [6-(1-Isopentyl-1H-pyrazol-4-yl)-3-(2-methoxypyridin-3-yl)imidazo[1,2-b]pyridazine] |
| ≥ 8.00 | COc1ncccc1-c1cnc2ccc(-c3cnn(C(=O)OC(C)C)c3)nn12 [Isopropyl 4-(3-(2-methoxypyridin-3-yl)imidazo[1,2-b]pyridazin-6-yl)-1H-pyrazole-1-carboxylate] |
| ≥ 8.00 | CC(C)CCn1ccc(-c2ccc3ncc(Br)n3n2)cc1=O [4-(3-Bromoimidazo[1,2-b]pyridazin-6-yl)-1-isopentylpyridin-2(1H)-one] |
| 6.00 to 7.00 | CC(C)C[C@H](N)Cn1ccc(-c2ccc3ncc(Cl)n3n2)cc1=O [(S)-1-(2-Amino-4-methylpentyl)-4-(3-chloroimidazo[1,2-b]pyridazin-6-yl)pyridin-2(1H)-one] |
| 6.00 to 7.00 | CC(C)CCn1cc(-c2ccc3nccn3n2)cn1 [6-(1-Isopentyl-1H-pyrazol-4-yl)imidazo[1,2-b]pyridazine] |
| 7.00 to 8.00 | COc1ncccc1-c1cnc2ccc(-c3ccn(C[C@@H](N)CC(C)C)c(=O)c3)nn12 [(S)-1-(2-Amino-4-methylpentyl)-4-(3-(2-methoxypyridin-3-yl)imidazo[1,2-b]pyridazin-6-yl)pyridin-2(1H)-one] |

Further lines, the compound ahead of its results:

| Structure (SMILES) | pIC50 |
| --- | --- |
| CC(C)(C)Cn1cc(-c2ccc3ncc(Cl)n3n2)cn1 [3-Chloro-6-(1-neopentyl-1H-pyrazol-4-yl)imidazo[1,2-b]pyridazine] | 7.00 to 8.00 |
| Cc1cnc2ccc(-c3ccn(CCC(C)(C)C)c(=O)c3)nn12 [1-(3,3-Dimethylbutyl)-4-(3-methylimidazo[1,2-b]pyridazin-6-yl)pyridin-2(1H)-one] | 7.00 to 8.00 |
| COc1nc(C)ccc1-c1cnc2ccc(-c3ccn(CCC(C)C)c(=O)c3)nn12 [1-isopentyl-4-(3-(2-methoxy-6-methylpyridin-3-yl)imidazo[1,2-b]pyridazin-6-yl)pyridin-2(1H)-one] | ≥ 8.00 |
| CCOc1ncccc1-c1cnc2ccc(-c3ccn(CCC(C)C)c(=O)c3)nn12 [4-(3-(2-Ethoxypyridin-3-yl)imidazo[1,2-b]pyridazin-6-yl)-1-isopentylpyridin-2(1H)-one] | ≥ 8.00 |
| COc1ncccc1-c1cnc2ccc(-c3cnn(CC(C)(C)C)c3)nn12 [3-(2-Methoxypyridin-3-yl)-6-(1-neopentyl-1H-pyrazol-4-yl)imidazo[1,2-b]pyridazine] | ≥ 8.00 |
| CC(C)CCn1cc(-c2ccc3ncc(Br)n3n2)cn1 [3-Bromo-6-(1-isopentyl-1H-pyrazol-4-yl)imidazo[1,2-b]pyridazine] | ≥ 8.00 |
| COc1cnccc1-c1cnc2ccc(-c3cccc(C(=O)CCC(C)C)c3)nn12 [1-(3-(3-(3-Methoxypyridin-4-yl)imidazo[1,2-b]pyridazin-6-yl)phenyl)-4-methylpentan-1-one] | ≥ 8.00 |
| CC(=O)c1cnc2ccc(-c3ccn(CCC(C)C)c(=O)c3)nn12 [4-(3-Acetylimidazo[1,2-b]pyridazin-6-yl)-1-isopentylpyridin-2(1H)-one] | 7.00 to 8.00 |
| COc1ncc(F)cc1-c1cnc2ccc(-c3ccn(CCC(C)C)c(=O)c3)nn12 [4-(3-(5-Fluoro-2-methoxypyridin-3-yl)imidazo[1,2-b]pyridazin-6-yl)-1-isopentylpyridin-2(1H)-one] | ≥ 8.00 |
| COc1ncccc1-c1cnc2ccc(-c3ccn(CCC(C)C)c(=O)c3)nn12 [1-isopentyl-4-(3-(2-methoxypyridin-3-yl)imidazo[1,2-b]pyridazin-6-yl)pyridin-2(1H)-one] | ≥ 8.00 |
| CC(C)(C)Cn1cc(-c2ccc3ncc(Br)n3n2)cn1 [3-Bromo-6-(1-neopentyl-1H-pyrazol-4-yl)imidazo[1,2-b]pyridazine] | 7.00 to 8.00 |
| Cc1cnc2ccc(-c3ccn(CCC(C)C)c(=O)c3)nn12 [1-Isopentyl-4-(3-methylimidazo[1,2-b]pyridazin-6-yl)pyridin-2(1H)-one] | ≥ 8.00 |

same assay, conditions: same assay, given as numeric bound instead of class symbol

| pIC50 | Structure (SMILES) |
| --- | --- |
| < 6.52 | CC(C)C[C@H](N)Cn1ccc(-c2ccc3nccn3n2)cc1=O [(S)-1-(2-Amino-4-methylpentyl)-4-(imidazo[1,2-b]pyridazin-6-yl)pyridin-2(1H)-one] |
| < 6.52 | CC(C)C[C@@H](Cn1ccc(-c2ccc3nccn3n2)cc1=O)N1C(=O)c2ccccc2C1=O [(S)-2-(1-(4-(Imidazo[1,2-b]pyridazin-6-yl)-2-oxopyridin-1(2H)-yl)-4-methylpentan-2-yl)isoindoline-1,3-dione] |
| < 6.52 | Cc1cnc2ccc(-c3ccn(C[C@@H](N)CC(C)C)c(=O)c3)nn12 [(S)-1-(2-Amino-4-methylpentyl)-4-(3-methylimidazo[1,2-b]pyridazin-6-yl)pyridin-2(1H)-one] |
| < 6.52 | CC(C)(C)Cn1cc(-c2ccc3nccn3n2)cn1 [6-(1-Neopentyl-1H-pyrazol-4-yl)imidazo[1,2-b]pyridazine] |
| < 6.52 | CC(C)OC(=O)n1cc(-c2ccc3nccn3n2)cn1 [Isopropyl 4-(imidazo[1,2-b]pyridazin-6-yl)-1H-pyrazole-1-carboxylate] |

biological target: T1, AAK1 (full length human) transfected with Flag/AP2MI in HEK293F cells; phospho-mu2 (Homo sapiens, UniProt Q2M2I8); experiment: HEK281 cell-based assay; conditions: HEK293F cells transfected with human AAK1 and AP2M1, 3 hours with compound, phospho-mu2 Western blot normalized to total Mu2
T1 construct: HA; expressed in transfected cells; host or cells: HEK293F
T1 sequence (Q2M2I8 1-863 isoform Q2M2I8-2): as above
Procedure: HEK293F cells were cultured in media containing DMEM (Gibco, cat. #11965), 10% FBS (SAFC Biosciences, cat. #12103C), 1×GPS (glutamine, penicillin and streptomycin). On day one, cells were plated on a 10 cm dish so that they are ˜80% confluent at time of transfection. Roughly 12 million cells were in a 10 cm dish at time of transfection. On day two, each dish was transfected with 48 ug DNA and 144 ul Lipofectamine 2000 (Invitrogen, cat.#11668-019). The DNA was comprised of a mixture (per 10 cm dish) containing 3 ug AAK1/HA/pIRES (full length human, NCBI accession no. NP_055726.2), 45 μg Flag/AP2MI/pcDNA (full length human), and 1.5 ml OPTI-MEM. The Lipofectamine 2000 is made up of a mixture (per 10 cm dish) containing 144 μl Lipofectamine 2000 and 1.5 ml OPTI-MEM. Each mixture was transferred to individual 15 ml tubes and incubated at room temperature for 5 minutes, and then the two mixes were combined and incubated at room temperature for 20 minutes. Growth media was then aspirated from each 10 cm plate and replaced with 10 ml of DMEM+10% FBS (no GPS). Finally, 3 ml DNA/Lipofectamine mix was added to each 10 cm dish and mix gently followed by incubate of plate overnight at 37° C. and 5% CO2.
On day three, compounds were diluted in 100% DMSO at 1000× final concentration, followed by 3-fold serial dilutions for a total of 5 concentrations tested. Four compounds were tested per 10 cm dish. One ul of each compound dilution was then pipetted into a deep-well, 96-well plate, followed by addition of 500 μl DMEM+0.5% FBS into each well for a 2× final concentration of each compound. Cells were resuspended in a 10 cm dish by simple pipetting (HEK293 cells come off the plate that easy at this point) and then transferred to a 50 ml conical tube and pelleted by centrifugation at 1000 rpm for 5 min. Cell pellets were then resuspended in 2.75 ml DMEM+0.5% FBS per 10 cm dish and 100 μl of cell suspension transferred into each well of 96-well TC plate. Finally, 100 μl of 2× compound diluted in DMEM+0.5% FBS was then added into wells containing cell suspension for a 1× final concentration. Plates were then incubated at 37° C. and 5% CO2 for 3 hours followed by transferring of cell suspensions from each well into 12-tube PCR strips. The PCR strips were spun in a tip rack at 1000 rpm for 5 minutes to pellet cells and media was then removed by pipetting without disturbing the cell pellet.
To prepare for Western Blot analysis, cell pellets were resuspend in 40 ul 1×LDS-PAGE sample buffer (Invitrogen, cat.# NP0008) +2× Halt phophatase and protease inhibitor cocktail (Thermo Scientific, cat.#1861284), followed by sonicating each with microtip sonicator set at 5 for 8-10 seconds. Five ul of 10× NuPage Sample Reducing Agent (with […]) was to each sample followed by heat denaturing at 70 C for 10 min on PCR machine. A total of 10 μl per sample was loaded into each lane of a 4-20% Tris-Glycine Criterion 26-well gel (Biorad, cat.#345-0034) for the phospho-mu2 blot and 10 μl per lane in a 4-12% Bis-Tris (+MES buffer) NuPAGE 26-well gel (Invitrogen, cat.# WG1403BX10) for the mu2 blot. For controls, 2 ng of phospho-mu2 or 20 ng mu2/Flag proteins were loaded in the last well of each gel. After SDS-PAGE, samples on each gel were transferred to PVDF membrane using an iBlot and membranes were blocked for one hour in TBST+5% milk, followed by wash 3× for 5-10 min with TBST. Criterion gels were probed with rabbit anti-phospho-mu2 (1:5000; a rabbit polyclonal antibody produced by New England Peptide and affinity purified at Lexicon) in TBST+5% BSA, whereas, NuPAGE gels were probed with mouse anti-Flag (1:500; Sigma, cat.# F1804) in TBST+5% milk, and these primary antibodies were incubated overnight at 4° C. on a rocker. […]

| Structure (SMILES) | CBA IC50 |
| --- | --- |
| CC(=O)c1ccc(-c2cnc3ccc(-c4ccc(C#N)cc4)nn23)s1 [4-[3-(5-Acetyl-thiophen-2-yl)-imidazo[1,2-b]pyridazin-6-yl]-benzonitrile] | * (“*” means less than or equal to 1.0 μM) |
| CCCCCc1ccc2ncc(-c3ccc(C(C)=O)s3)n2n1 [1-(5-(6-Pentylimidazo[1,2-b]pyridazin-3-yl)thiophen-2-yl)ethanone] | * (“*” means less than or equal to 1.0 μM) |

Reference: patent publication US20150183791A1, “IMIDAZO[1,2-b]PYRIDAZINE-BASED COMPOUNDS, COMPOSITIONS COMPRISING THEM, AND METHODS OF THEIR USE” (LEXICON PHARMACEUTICALS, INC., priority 2013, published 2015)
